Results taken from patent US8247211B2, “Glycopeptide antibiotics” (American Cyanamid Company, priority 2001, dated 2012).
≈ marks a conversion by molar mass, not a printed value.

Tests used:
[1] = test system: Staphylococcus aureus-SMITH (GC 4543); assay: Acute lethal infection in mice (ED50); format: in vivo; conditions: female CD-1 mice, intraperitoneal challenge, intravenous dose 30 min. after infection, 7 day survival ratios
Method in brief: (§1)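 Female CD-1 mice (20 ± 1-2 g) were infected intraperitoneally with enough bacteria, suspended in Trypticase Soy Broth or hog gastric mucin, to kill untreated controls within 24-48 hr. Compound in saline or 5% dextrose was given intravenously 30 min after infection. ED50 came from pooled 7-day survival over 3 tests.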

[2] = test system: Enterococcus faecalis (GC 6189), vancomycin resistant strain; assay: Acute lethal infection in mice (ED50); format: in vivo; conditions: female CD-1 mice, intraperitoneal challenge, intravenous dose 30 min. after infection, 7 day survival ratios
Method in brief: as §1

Staphylococcus sp. = assay: In vitro antibacterial evaluation: minimum inhibitory concentration (MIC), broth dilution method; format: cell-based; conditions: for MIC Staphylococcus aureus (ATCC 29213): strain ATCC 29213; for MIC Staphylococcus aureus (GC 1131): strain GC 1131; for MIC Staphylococcus aureus (GC 3051): strain GC 3051; for MIC Staphylococcus aureus (GC 3053): strain GC 3053; for MIC Staphylococcus aureus (GC 4541): strain GC 4541; for MIC Staphylococcus aureus (GC 4542): strain GC 4542; for MIC Staphylococcus aureus-SMITH (GC 4543): strain GC 4543; for MIC Staphylococcus aureus (GC 4544): strain GC 4544; for MIC Staphylococcus aureus (GC 4545): strain GC 4545; for MIC Staphylococcus haemolyticus (GC 4546): strain GC 4546; for MIC Coagulase Negative Staphylococcus (GC 4547): strain GC 4547; for MIC Coagulase Negative Staphylococcus (GC 4548): strain GC 4548; for MIC Coagulase Negative Staphylococcus (GC 4549): strain GC 4549; for MIC Coagulase Negative Staphylococcus (GC 4551): strain GC 4551; for MIC Coagulase Negative Staphylococcus (GC 6257): strain GC 6257
Method in brief: (§2)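 Susceptibility determined by NCCLS-recommended broth dilution (M7-A2), Muller-Hinton II […]. Concentration span 64-0.06 μg/mL, inoculum 5×10^5 CFU/mL. Isolates include strains resistant to methicillin, penicillin and/or vancomycin.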

Enterococcus sp. = assay: as above; format: cell-based; conditions: broth dilution, 5×10^5 CFU/mL, 18 hours at 35° C.
Method in brief: as §2

Streptococcus sp. = assay: as above; format: cell-based; conditions: broth dilution, 5×10^5 CFU/mL, 18 hours at 35° C.
Method in brief: as §2

Escherichia coli = assay: as above; format: cell-based; conditions: 5×10^5 CFU/mL, 18 hours at 35° C.
Method in brief: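 An MIC is reported for each organism as the least concentration giving inhibition, using broth dilution over 64-0.06 μg/mL with a 5×10^5 CFU/mL inoculum.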

[3] = broth dilution, 18 hours at 35° C.

Cc1ccc(CC2OCC3OC(OC4C(CO)OC(Oc5ccc(CC6NC(=O)C(C(C)c7ccccc7)NC(=O)CNC(=O)C(CO)NC(=O)C(C(O)C7CNC(=N)N7C7OC(CO)C(O)C(O)C7O)NC(=O)C(C(O)C7CNC(=N)N7)NC6=O)cc5)C(O)C4O)C(O)C(O)C3O2)cc1 (stereo not drawn) [Example 119, Cyclo[glycyl-β-methylphenylalanyl-O-[4-O-[4,6-O-(4-methylphenethylidene)hexopyranosyl]-hexopyranosyl]tyrosyl-3-(2-iminoimidazolidin-4-yl)seryl-3-(3-hexopyranosyl-2-iminoimidazolidin-4-yl)serylseryl]]
median effective dose (ED50), Staphylococcus aureus-SMITH (GC 4543) [1]: 0.19 mg/kg | median effective dose (ED50), Enterococcus faecalis (GC 6189) [2]: 0.41 mg/kg | MIC Staphylococcus aureus (ATCC 29213) (Staphylococcus sp.): 1 µg/mL (≈ 0.708 µM) | MIC Staphylococcus aureus (ATCC 29213) (Staphylococcus sp.; [3]): 1 µg/mL (≈ 0.708 µM) | MIC Staphylococcus aureus (GC 1131) (Staphylococcus sp.): 1 µg/mL (≈ 0.708 µM) | MIC Staphylococcus aureus (GC 1131) (Staphylococcus sp.; [3]): 1 µg/mL (≈ 0.708 µM) | MIC Staphylococcus aureus (GC 3051) (Staphylococcus sp.): 1 µg/mL (≈ 0.708 µM) | MIC Staphylococcus aureus (GC 3051) (Staphylococcus sp.; [3]): 1 µg/mL (≈ 0.708 µM) | MIC Staphylococcus aureus (GC 3053) (Staphylococcus sp.): 2 µg/mL (≈ 1.42 µM) | MIC Staphylococcus aureus (GC 3053) (Staphylococcus sp.; [3]): 2 µg/mL (≈ 1.42 µM) | MIC Staphylococcus aureus (GC 4541) (Staphylococcus sp.): 1 µg/mL (≈ 0.708 µM) | MIC Staphylococcus aureus (GC 4541) (Staphylococcus sp.; [3]): 1 µg/mL (≈ 0.708 µM) | MIC Staphylococcus aureus (GC 4542) (Staphylococcus sp.): 1 µg/mL (≈ 0.708 µM) | MIC Staphylococcus aureus (GC 4542) (Staphylococcus sp.; [3]): 1 µg/mL (≈ 0.708 µM) | MIC Staphylococcus aureus-SMITH (GC 4543) (Staphylococcus sp.; 18 hours at 35° C.): 1 µg/mL (≈ 0.708 µM) | MIC Staphylococcus aureus-SMITH (GC 4543) (Staphylococcus sp.; [3]): 1 µg/mL (≈ 0.708 µM) | MIC Staphylococcus aureus (GC 4544) (Staphylococcus sp.): 1 µg/mL (≈ 0.708 µM) | MIC Staphylococcus aureus (GC 4544) (Staphylococcus sp.; [3]): 1 µg/mL (≈ 0.708 µM) | MIC Staphylococcus aureus (GC 4545) (Staphylococcus sp.): 1 µg/mL (≈ 0.708 µM) | MIC Staphylococcus aureus (GC 4545) (Staphylococcus sp.; [3]): 1 µg/mL (≈ 0.708 µM) | MIC Staphylococcus haemolyticus (GC 4546) (Staphylococcus sp.): 1 µg/mL (≈ 0.708 µM) | MIC Staphylococcus haemolyticus (GC 4546) (Staphylococcus sp.; [3]): 1 µg/mL (≈ 0.708 µM) | MIC Coagulase Negative Staphylococcus (GC 4547) (Staphylococcus sp.): 1 µg/mL (≈ 0.708 µM) | MIC Coagulase Negative Staphylococcus (GC 4547) (Staphylococcus sp.; [3]): 1 µg/mL (≈ 0.708 µM) | MIC Coagulase Negative Staphylococcus (GC 4548) (Staphylococcus sp.): 1 µg/mL (≈ 0.708 µM) | MIC Coagulase Negative Staphylococcus (GC 4548) (Staphylococcus sp.; [3]): 1 µg/mL (≈ 0.708 µM) | MIC Coagulase Negative Staphylococcus (GC 4549) (Staphylococcus sp.): 1 µg/mL (≈ 0.708 µM) | MIC Coagulase Negative Staphylococcus (GC 4549) (Staphylococcus sp.; [3]): 1 µg/mL (≈ 0.708 µM) | MIC Coagulase Negative Staphylococcus (GC 4551) (Staphylococcus sp.): 1 µg/mL (≈ 0.708 µM) | MIC Coagulase Negative Staphylococcus (GC 4551) (Staphylococcus sp.; [3]): 1 µg/mL (≈ 0.708 µM) | MIC Coagulase Negative Staphylococcus (GC 6257) (Staphylococcus sp.): <0.5 µg/mL | MIC Coagulase Negative Staphylococcus (GC 6257) (Staphylococcus sp.; [3]): <0.5 µg/mL | MIC Enterococccus avium (GC 4558) (Enterococcus sp.): 4 µg/mL (≈ 2.83 µM) | MIC Enterococccus faecalis (ATCC 29212) (Enterococcus sp.): 2 µg/mL (≈ 1.42 µM) | MIC Enterococccus faecalis (GC 2691) (Enterococcus sp.): 2 µg/mL (≈ 1.42 µM) | MIC Enterococccus faecalis (GC 3059) (Enterococcus sp.): >64 µg/mL | MIC Enterococccus faecalis (GC 4552) (Enterococcus sp.): 2 µg/mL (≈ 1.42 µM) | MIC Enterococccus faecalis (GC 4553) (Enterococcus sp.): 4 µg/mL (≈ 2.83 µM) | MIC Enterococccus faecalis (GC 4554) (Enterococcus sp.): 2 µg/mL (≈ 1.42 µM) | MIC Enterococccus faecalis (GC 6189) (Enterococcus sp.): 2 µg/mL (≈ 1.42 µM) | MIC Enterococccus faecium (GC 2243) (Enterococcus sp.): 4 µg/mL (≈ 2.83 µM) | MIC Enterococccus faecium (GC 4556) (Enterococcus sp.): 2 µg/mL (≈ 1.42 µM) | MIC Enterococccus faecium (GC 4557) (Enterococcus sp.): 1 µg/mL (≈ 0.708 µM) | MIC Enterococcus faecalis (GC 2242) (Enterococcus sp.): 2 µg/mL (≈ 1.42 µM) | MIC Streptococcus agalactiae (GC 4564) (Streptococcus sp.): <0.5 µg/mL | MIC Streptococcus pneumoniae (GC 1894) (Streptococcus sp.): <0.5 µg/mL | MIC Streptococcus pneumoniae (GC 4565) (Streptococcus sp.): 1 µg/mL (≈ 0.708 µM) | MIC Streptococcus pneumonine (ATCC 6301) (Streptococcus sp.): <0.5 µg/mL | MIC Streptococcus pyogenes (GC 4563) (Streptococcus sp.): <0.5 µg/mL | MIC Escherichia coli (ATCC 25922) (Escherichia coli): 32 µg/mL (≈ 22.7 µM) | MIC Escherichia coli (GC 4559) (Escherichia coli): 32 µg/mL (≈ 22.7 µM) | MIC Escherichia coli (GC 4560) (Escherichia coli): 1 µg/mL (≈ 0.708 µM)
